Reference: patent US12268674B2, “Mi-2β inhibitor as an immunotherapy agent” (BioVentures, LLC, priority 2021, dated 2025)

Tests used:
Experiment in all cases: ATPase profile (ATP acyl phosphate probe)
Format in all cases: binding
[1] = target: T1, ABCC4 (Homo sapiens, UniProt O15439)
T1 construct: to get the native cell lysate; host or cells: A375 cell lysate

[2] = target: T2, ABCF3 (Homo sapiens, UniProt Q9NUQ8); conditions: ABCF3, SEQ ID NO: 19, ATP BS
T2 construct: to get the native cell lysate; host or cells: A375 cell lysate

[3] = target: T3, AK4 (Homo sapiens, UniProt P27144); conditions: AK4, SEQ ID NO: 35, ATP BS
T3 construct: to get the native cell lysate; host or cells: A375 cell lysate

[4] = target: T4, ASS1 (Homo sapiens, UniProt P00966); conditions: ASS1, SEQ ID NO: 43, ATP BS
T4 construct: to get the native cell lysate; host or cells: A375 cell lysate

[5] = target: T5, DCTPP1 (Homo sapiens, UniProt Q9H773); conditions: DCTPP1, SEQ ID NO: 65, ATP BS
T5 construct: endogenous in cells; host or cells: A375 cell lysate

[6] = target: T6, DDX28 (Homo sapiens, UniProt Q9NUL7); conditions: DDX28, SEQ ID NO: 68, ATP BS
T6 construct: endogenous in cells; host or cells: A375 cell lysate

[7] = target: T7, DHX36 (Homo sapiens, UniProt Q9H2U1); conditions: DHX36, SEQ ID NO: 73, ATP BS
T7 construct: endogenous in cells; host or cells: A375 cell lysate

[8] = target: T8, ENPP1 (Homo sapiens, UniProt P22413); conditions: ENPP1, SEQ ID NO: 76, ATP BS
T8 construct: endogenous in cells; host or cells: A375 cell lysate

[9] = target: T9, GARS (Homo sapiens, UniProt P41250); conditions: SEQ ID NO: 79, ATP BS
T9 construct: endogenous in cells; host or cells: A375 cell lysate

[10] = target: T10, GMPS (Homo sapiens, UniProt P49915)
T10 construct: endogenous in cells; host or cells: A375 cell lysate

[11] = target: T11, GSS (Homo sapiens, UniProt P48637)
T11 construct: endogenous in cells; host or cells: A375 cell lysate

[12] = target: T12, HDDC3 (Homo sapiens, UniProt Q8N4P3)
T12 construct: to get the native cell lysate; endogenous in cells; host or cells: A375

[13] = target: T13, HSP90AB1 (Homo sapiens, UniProt P08238); conditions: HSP90AB1, SEQ ID NO: 97, ATP BS
T13 construct: to get the native cell lysate; endogenous in cells; host or cells: A375

[14] = target: T14, HSPA8 (Homo sapiens, UniProt P11142)
T14 construct: to get the native cell lysate; endogenous in cells; host or cells: A375

[15] = target: T15, HSPA9 (Homo sapiens, UniProt P38646); conditions: HSPA9, SEQ ID NO: 108, ATP BS
T15 construct: to get the native cell lysate; endogenous in cells; host or cells: A375

[16] = target: T16, IDI1 (Homo sapiens, UniProt Q13907); conditions: IDI1, SEQ ID NO: 111, ATP BS
T16 construct: endogenous in cells; host or cells: A375

[17] = target: T17, KARS (Homo sapiens, UniProt Q15046); conditions: SEQ ID NO: 112, ATP BS
T17 construct: to get the native cell lysate; endogenous in cells; host or cells: A375

[18] = target: T18, MMAB (Homo sapiens, UniProt Q96EY8); conditions: SEQ ID NO: 124, ATP BS
T18 construct: to get the native cell lysate; endogenous in cells; host or cells: A375

[19] = target: T19, MTHFD1 (Homo sapiens, UniProt P11586); conditions: MTHFD1, SEQ ID NO: 125, ATP BS
T19 construct: to get the native cell lysate; endogenous in cells; host or cells: A375

[20] = target: T20, MTHFD1L (Homo sapiens, UniProt Q6UB35); conditions: SEQ ID NO: 126, ATP BS
T20 construct: to get the native cell lysate; endogenous in cells; host or cells: A375

[21] = target: T21, NTPCR (Homo sapiens, UniProt Q9BSD7); conditions: SEQ ID NO: 141, ATP BS
T21 construct: to get the native cell lysate; endogenous in cells; host or cells: A375

[22] = target: T22, PFKM (Homo sapiens, UniProt P08237); conditions: SEQ ID NO: 159, ATP BS
T22 construct: to get the native cell lysate; endogenous in cells; host or cells: A375 cell lysate

[23] = target: PSMC2 (Homo sapiens, UniProt P35998); conditions: PSMC2, SEQ ID NO: 174, ATP BS
[24] = target: PSMD9 (Homo sapiens, UniProt O00233); conditions: PSMD9, SEQ ID NO: 179, ATP BS; read-out: Inhibition (%) by 1 μM Z36-MP5
[25] = target: T23, RUVBL1 (Homo sapiens, UniProt Q9Y265); conditions: RUVBL1, SEQ ID NO: 188, ATP BS
T23 construct: to get the native cell lysate; endogenous in cells; host or cells: A375 cell lysate

[26] = target: T24, SKIV2L (Homo sapiens, UniProt Q15477); conditions: SEQ ID NO: 191, ATP BS
T24 construct: to get the native cell lysate; endogenous in cells; host or cells: A375 cell lysate

[27] = target: T25, SUCLA2 (Homo sapiens, UniProt Q9P2R7)
T25 construct: to get the native cell lysate; endogenous in cells; host or cells: A375 cell lysate

[28] = target: T26, TOR3A (Homo sapiens, UniProt Q9H497); conditions: SEQ ID NO: 206, ATP BS
T26 construct: to get the native cell lysate; endogenous in cells; host or cells: A375 cell lysate

[29] = target: T27, TRA1 (Homo sapiens, UniProt P14625); conditions: TRA1, SEQ ID NO: 208, ATP BS
T27 construct: to get the native cell lysate; endogenous in cells; host or cells: A375 cell lysate

[30] = system: VPS4A, VPS4B; conditions: SEQ ID NO: 229, ATP BS

T25 sequence (Q9P2R7 53-463): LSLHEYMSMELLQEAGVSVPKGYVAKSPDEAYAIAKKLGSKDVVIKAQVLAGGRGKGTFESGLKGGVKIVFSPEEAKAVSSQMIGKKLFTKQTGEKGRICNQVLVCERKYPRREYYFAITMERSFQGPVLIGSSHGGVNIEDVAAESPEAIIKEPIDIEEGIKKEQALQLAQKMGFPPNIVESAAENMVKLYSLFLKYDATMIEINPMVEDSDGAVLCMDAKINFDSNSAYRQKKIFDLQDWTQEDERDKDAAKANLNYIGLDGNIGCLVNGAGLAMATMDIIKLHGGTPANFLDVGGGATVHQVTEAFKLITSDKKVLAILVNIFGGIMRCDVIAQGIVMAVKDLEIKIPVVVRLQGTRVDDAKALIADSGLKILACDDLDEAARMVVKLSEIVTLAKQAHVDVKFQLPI
T25 sequence (P53597 41-346 partner): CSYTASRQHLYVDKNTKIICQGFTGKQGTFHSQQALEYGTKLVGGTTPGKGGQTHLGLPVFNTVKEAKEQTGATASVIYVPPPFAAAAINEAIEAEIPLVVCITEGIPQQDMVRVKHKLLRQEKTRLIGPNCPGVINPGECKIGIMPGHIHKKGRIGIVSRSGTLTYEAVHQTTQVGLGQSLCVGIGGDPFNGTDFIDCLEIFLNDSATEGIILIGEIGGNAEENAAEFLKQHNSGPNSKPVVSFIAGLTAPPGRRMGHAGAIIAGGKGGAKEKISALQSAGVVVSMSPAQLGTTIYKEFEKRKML
T11 sequence (P48637 whole entry): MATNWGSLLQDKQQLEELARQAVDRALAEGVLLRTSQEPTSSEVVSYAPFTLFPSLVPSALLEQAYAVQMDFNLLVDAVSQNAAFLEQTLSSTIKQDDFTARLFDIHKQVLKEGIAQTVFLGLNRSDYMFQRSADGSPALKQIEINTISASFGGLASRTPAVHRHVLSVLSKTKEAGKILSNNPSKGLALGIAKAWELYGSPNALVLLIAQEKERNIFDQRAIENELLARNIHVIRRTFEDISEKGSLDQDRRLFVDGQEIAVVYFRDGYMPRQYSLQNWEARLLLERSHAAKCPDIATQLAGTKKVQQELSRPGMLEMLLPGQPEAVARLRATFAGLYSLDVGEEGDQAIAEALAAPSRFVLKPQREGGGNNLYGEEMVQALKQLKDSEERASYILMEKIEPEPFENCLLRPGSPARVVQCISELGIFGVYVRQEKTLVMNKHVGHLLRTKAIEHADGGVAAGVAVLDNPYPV
T1 sequence (O15439 whole entry): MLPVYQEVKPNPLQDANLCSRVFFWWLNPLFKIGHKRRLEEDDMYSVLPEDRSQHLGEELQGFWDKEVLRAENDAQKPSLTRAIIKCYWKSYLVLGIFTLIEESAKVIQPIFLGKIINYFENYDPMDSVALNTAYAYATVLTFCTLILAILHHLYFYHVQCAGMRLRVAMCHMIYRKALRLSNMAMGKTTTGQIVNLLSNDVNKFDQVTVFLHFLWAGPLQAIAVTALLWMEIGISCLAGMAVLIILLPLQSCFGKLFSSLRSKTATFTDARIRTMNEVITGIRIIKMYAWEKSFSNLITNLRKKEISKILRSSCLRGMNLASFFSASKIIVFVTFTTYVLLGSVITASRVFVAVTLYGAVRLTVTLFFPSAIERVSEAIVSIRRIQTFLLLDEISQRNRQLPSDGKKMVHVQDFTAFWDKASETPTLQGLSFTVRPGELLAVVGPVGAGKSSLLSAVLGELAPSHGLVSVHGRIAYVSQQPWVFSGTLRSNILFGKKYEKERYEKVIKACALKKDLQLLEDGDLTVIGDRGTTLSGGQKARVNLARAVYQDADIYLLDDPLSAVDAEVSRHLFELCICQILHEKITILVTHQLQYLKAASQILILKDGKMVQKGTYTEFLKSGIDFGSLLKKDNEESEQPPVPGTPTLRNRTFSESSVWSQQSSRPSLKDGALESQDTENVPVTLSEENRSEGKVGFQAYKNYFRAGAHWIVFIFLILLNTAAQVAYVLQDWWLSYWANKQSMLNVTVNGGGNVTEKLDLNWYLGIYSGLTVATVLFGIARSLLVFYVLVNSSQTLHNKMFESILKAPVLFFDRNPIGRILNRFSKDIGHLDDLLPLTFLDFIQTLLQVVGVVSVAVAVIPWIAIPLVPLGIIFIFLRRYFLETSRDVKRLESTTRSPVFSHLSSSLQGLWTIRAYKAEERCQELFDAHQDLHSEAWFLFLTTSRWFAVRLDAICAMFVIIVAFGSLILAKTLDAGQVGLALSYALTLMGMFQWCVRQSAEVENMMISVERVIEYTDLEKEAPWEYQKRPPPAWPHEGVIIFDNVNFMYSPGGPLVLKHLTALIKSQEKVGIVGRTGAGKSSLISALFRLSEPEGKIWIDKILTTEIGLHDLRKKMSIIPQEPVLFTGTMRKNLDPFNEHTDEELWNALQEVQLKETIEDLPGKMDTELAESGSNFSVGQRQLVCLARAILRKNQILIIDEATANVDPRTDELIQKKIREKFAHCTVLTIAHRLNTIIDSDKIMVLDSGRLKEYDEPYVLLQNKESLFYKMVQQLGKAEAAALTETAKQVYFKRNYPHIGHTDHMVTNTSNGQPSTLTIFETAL
T12 sequence (Q8N4P3 whole entry): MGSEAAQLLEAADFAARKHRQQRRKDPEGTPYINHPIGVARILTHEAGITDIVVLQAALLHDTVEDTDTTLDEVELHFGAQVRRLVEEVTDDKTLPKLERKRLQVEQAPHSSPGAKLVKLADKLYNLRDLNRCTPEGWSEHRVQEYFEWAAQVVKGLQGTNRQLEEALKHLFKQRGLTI
T10 sequence (P49915 whole entry): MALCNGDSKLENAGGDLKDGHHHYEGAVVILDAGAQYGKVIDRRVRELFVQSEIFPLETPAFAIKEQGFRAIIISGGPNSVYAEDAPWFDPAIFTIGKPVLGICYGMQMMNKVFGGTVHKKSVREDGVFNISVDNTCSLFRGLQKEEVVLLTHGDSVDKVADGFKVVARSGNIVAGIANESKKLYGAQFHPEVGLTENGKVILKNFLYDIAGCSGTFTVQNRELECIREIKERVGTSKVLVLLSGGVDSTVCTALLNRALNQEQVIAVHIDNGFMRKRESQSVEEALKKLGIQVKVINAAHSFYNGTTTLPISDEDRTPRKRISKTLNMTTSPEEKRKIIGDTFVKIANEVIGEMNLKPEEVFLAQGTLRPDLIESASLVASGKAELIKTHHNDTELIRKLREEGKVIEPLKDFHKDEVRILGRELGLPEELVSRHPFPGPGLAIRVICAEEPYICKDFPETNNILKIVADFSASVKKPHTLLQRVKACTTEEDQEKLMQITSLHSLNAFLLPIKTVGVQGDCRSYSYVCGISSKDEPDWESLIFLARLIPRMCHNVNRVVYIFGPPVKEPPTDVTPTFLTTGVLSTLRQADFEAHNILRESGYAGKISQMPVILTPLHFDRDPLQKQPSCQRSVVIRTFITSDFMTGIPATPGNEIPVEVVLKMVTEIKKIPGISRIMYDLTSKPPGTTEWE
T14 sequence (P11142 whole entry): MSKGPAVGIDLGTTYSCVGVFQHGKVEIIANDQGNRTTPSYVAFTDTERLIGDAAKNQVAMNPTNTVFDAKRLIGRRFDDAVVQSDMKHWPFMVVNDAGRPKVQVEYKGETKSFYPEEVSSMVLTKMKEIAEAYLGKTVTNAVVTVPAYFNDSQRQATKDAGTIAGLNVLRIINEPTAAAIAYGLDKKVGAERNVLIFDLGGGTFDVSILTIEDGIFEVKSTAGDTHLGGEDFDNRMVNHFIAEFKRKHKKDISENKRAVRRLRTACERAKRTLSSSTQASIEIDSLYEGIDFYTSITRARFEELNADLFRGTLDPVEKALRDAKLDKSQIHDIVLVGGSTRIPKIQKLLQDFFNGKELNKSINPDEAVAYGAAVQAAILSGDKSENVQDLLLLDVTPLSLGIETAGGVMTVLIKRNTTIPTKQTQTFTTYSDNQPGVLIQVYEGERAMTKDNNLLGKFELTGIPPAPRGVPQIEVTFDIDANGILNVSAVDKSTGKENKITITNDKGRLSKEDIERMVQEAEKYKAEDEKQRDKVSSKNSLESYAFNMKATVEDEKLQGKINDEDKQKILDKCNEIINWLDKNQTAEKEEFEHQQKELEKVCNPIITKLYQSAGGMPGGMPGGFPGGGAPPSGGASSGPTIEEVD
T18 sequence (Q96EY8 33-250): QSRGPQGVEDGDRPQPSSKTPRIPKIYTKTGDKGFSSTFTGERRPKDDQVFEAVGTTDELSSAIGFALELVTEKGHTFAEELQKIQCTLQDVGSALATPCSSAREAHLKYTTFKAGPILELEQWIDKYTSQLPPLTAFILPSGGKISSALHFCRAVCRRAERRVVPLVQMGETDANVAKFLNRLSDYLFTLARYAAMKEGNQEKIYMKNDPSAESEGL
T17 sequence (Q15046 whole entry): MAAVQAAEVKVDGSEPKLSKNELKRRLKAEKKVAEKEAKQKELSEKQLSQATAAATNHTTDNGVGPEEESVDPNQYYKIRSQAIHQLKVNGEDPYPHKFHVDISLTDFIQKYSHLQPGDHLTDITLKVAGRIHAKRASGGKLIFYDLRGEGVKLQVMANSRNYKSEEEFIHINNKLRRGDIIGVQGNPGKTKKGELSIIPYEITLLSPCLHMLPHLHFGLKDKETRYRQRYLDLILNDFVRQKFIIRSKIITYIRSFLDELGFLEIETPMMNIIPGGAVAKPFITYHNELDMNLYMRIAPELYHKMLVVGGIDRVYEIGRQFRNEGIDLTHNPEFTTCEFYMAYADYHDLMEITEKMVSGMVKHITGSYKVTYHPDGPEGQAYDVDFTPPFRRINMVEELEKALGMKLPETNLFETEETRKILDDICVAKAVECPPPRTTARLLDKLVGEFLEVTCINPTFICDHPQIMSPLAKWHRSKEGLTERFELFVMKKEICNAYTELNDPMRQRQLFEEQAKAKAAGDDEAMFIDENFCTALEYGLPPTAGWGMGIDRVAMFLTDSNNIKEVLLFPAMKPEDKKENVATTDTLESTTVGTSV

Cn1c(=O)[nH]c2ccc(-c3cccc(C(=O)NC4CCn5ccnc5C4)c3)cc21 (stereo not drawn) [Z36-MP5, 3-(3-methyl-2-oxo-2,3-dihydro-1H-benzo[d]imidazol-5-yl)-N-(5,6,7,8-tetrahydroimidazo[1,2-a]pyridin-7-yl)benzamide]
Inhibition (%) by 1 μM Z36-MP5 ([1]; ABCC4, SEQ ID NO: 11, ATP BS): 1.76% | Inhibition (%) by 1 μM Z36-MP5 ([1]; ABCC4, SEQ ID NO: 12, ATP BS): 8.93% | Inhibition (%) by 1 μM Z36-MP5 [2]: 5.45% | Inhibition (%) by 1 μM Z36-MP5 [3]: −9.19% | Inhibition (%) by 1 μM Z36-MP5 [4]: 0.53% | Inhibition (%) by 1 μM Z36-MP5 [5]: 12.74% | Inhibition (%) by 1 μM Z36-MP5 [6]: −5.30% | Inhibition (%) by 1 μM Z36-MP5 [7]: −20.12% | Inhibition (%) by 1 μM Z36-MP5 [8]: 8.04% | Inhibition (%) by 1 μM Z36-MP5 [9]: 16.66% | Inhibition (%) by 1 μM Z36-MP5 ([10]; SEQ ID NO: 85, labeling site Other): −13.99% | Inhibition (%) by 1 μM Z36-MP5 ([10]; SEQ ID NO: 86, labeling site Other): 14.54% | Inhibition (%) by 1 μM Z36-MP5 ([11]; SEQ ID NO: 87, ATP BS): −5.02% | Inhibition (%) by 1 μM Z36-MP5 ([11]; SEQ ID NO: 88, ATP BS): 7.54% | Inhibition (%) by 1 μM Z36-MP5 ([12]; HDDC3, SEQ ID NO: 90, ATP BS): 1.23% | Inhibition (%) by 1 μM Z36-MP5 ([12]; HDDC3, SEQ ID NO: 91, ATP BS): 17.25% | Inhibition (%) by 1 μM Z36-MP5 [13]: −3.22% | Inhibition (%) by 1 μM Z36-MP5 ([14]; HSPA8, SEQ ID NO: 106, ATP BS): 3.27% | Inhibition (%) by 1 μM Z36-MP5 ([14]; HSPA8, SEQ ID NO: 107, ATP BS): 4.45% | Inhibition (%) by 1 μM Z36-MP5 [15]: −4.09% | Inhibition (%) by 1 μM Z36-MP5 [16]: 5.48% | Inhibition (%) by 1 μM Z36-MP5 [17]: 2.22% | Inhibition (%) by 1 μM Z36-MP5 [18]: −4.08% | Inhibition (%) by 1 μM Z36-MP5 [19]: −6.16% | Inhibition (%) by 1 μM Z36-MP5 [20]: 1.16% | Inhibition (%) by 1 μM Z36-MP5 [21]: −14.99% | Inhibition (%) by 1 μM Z36-MP5 [22]: −8.93% | Inhibition (%) by 1 μM Z36-MP5 [23]: −6.44% | inhibition at 1 µM [24]: 2.13% | Inhibition (%) by 1 μM Z36-MP5 [25]: −15.57% | Inhibition (%) by 1 μM Z36-MP5 [26]: −3.49% | Inhibition (%) by 1 μM Z36-MP5 ([27]; SUCLA2, SEQ ID NO: 198, ATP BS): −0.65% | Inhibition (%) by 1 μM Z36-MP5 ([27]; SUCLA2, SEQ ID NO: 199, ATP BS): 9.97% | Inhibition (%) by 1 μM Z36-MP5 [28]: 6.55% | Inhibition (%) by 1 μM Z36-MP5 [29]: −8.56% | Inhibition (%) by 1 μM Z36-MP5 [30]: −2.55%
